From publication PMC8347481, “Germacranolides from Carpesium divaricatum: Some New Data on Cytotoxic and Anti-Inflammatory Activity” (Molecules, 2021)
Like-named read-outs stand apart in the source and are kept apart here.

Legend:
cancer cells = test system: cancer cells; set-up: method as in PMID 30127485, PMID 22908556; details: cancer cells in vitro; cited from earlier work
NF-κB = details: cited from earlier work
[1] = test system: human polymorphonuclear leukocytes (PMNs); test: Cytotoxicity to neutrophils, propidium iodide staining and flow cytometry; type: cell-based; details: at 2.5 µM or lower concentrations, 24 h incubation
Experimental: Cytotoxicity of 1 and 2 to human polymorphonuclear leukocytes (PMNs) was evaluated using propidium iodide (PI) staining and flow cytometry (FACS) analysis. The compounds were nontoxic in PMNs at 2.5 µM or lower concentrations (Figure 4).
Cytotoxicity was assessed by a standard flow cytometric probe using propidium iodide (PI) staining. After 24 h of incubation in the absence or presence of the tested germacranolide (at concentrations of 0.5, 1.0, 2.5 and 5.0 μM), the neutrophils (3.5 × 10^5) were harvested and centrifuged (1500 r.p.m., 10 min, 4 °C), washed once with cold PBS and resuspended in 400 μL of PBS. A 5 μL aliquot of PI solution (50 μg/mL) was added to the cell suspension. After 15 min of incubation with PI at room temperature, cells were analyzed by BD FACSCalibur flow cytometer (BD Biosciences, San Jose, CA, USA), and 10,000 events were recorded per sample.

[2] = test system: ROS release from f-MLP-stimulated human neutrophils; test: ROS production, luminol-dependent chemiluminescence; type: cell-based; details: f-MLP stimulation, concentration range 1–2.5 μM
Experimental: Activation of PMNs, either at a site of inflammation or induced in vitro by proinflammatory agents, results in an oxidative burst in these cells. The phenomenon is characterized by intense ROS generation and liberation of proteolytic enzymes from azurophilic granules. An effect of the sesquiterpene lactones 1 and 2 on ROS production in PMNs was assessed in response to N-formyl-Met-Leu-Phe (f-MLP) stimulation.
ROS production was measured using luminol-dependent chemiluminescence test. A 70 μL aliquot of neutrophil suspension (3.5 × 10^5) in (Ca^2+)-free HBSS buffer, 50 μL of the tested compound solution and 50 μL of luminol (100 μM) were added to a well in a 96-well plate. ROS production was initiated by the addition of f-MLP (30 μL of 0.1 μg/mL solution) to obtain a total volume of 200 μL per well. Chemiluminescence changes were measured for 40 min, at 2 min intervals, in a microplate reader (37 °C). The background chemiluminescence produced by nonstimulated cells was also determined. The percentage of inhibition was calculated by comparison to the stimulated control without the tested compound, at the maximum luminescence.

[3] = test system: IL-1β secretion by LPS-stimulated human neutrophils; test: IL-1β release, ELISA; type: cell-based; details: 0.5, 1.0 and 2.5 µM, 24 h after LPS stimulation
Experimental: (§1) In response to stimulation with proinflammatory agents, e.g., LPS or f-MLP, human neutrophils excrete an array of cytokines and chemokines, including TNF-α, IL-1β, IL-8 and CCL2 [29, 30]. In the present study, neutrophils were pretreated with the examined compounds (1 or 2) before their priming with LPS. Levels of IL-1β, IL-8, TNF-α and CCL2 were determined in the culture medium, using ELISA, 24 h after LPS stimulation.
(§2) Neutrophils (2 × 10^6) were cultured in 24-well plates in RPMI 1640 medium with 10% FBS, 10 mM HEPES and 2 mM L-glutamine, in the presence or absence of LPS (100 ng/mL) and in the absence or presence of 1 or 2 (final concentrations of the examined germacranolide in a range of 0.5–2.5 μM), at 37 °C with 5% CO2. The neutrophils were harvested after 24 h and centrifuged (2000 r.p.m., 10 min, 4 °C). The amount of released cytokines was measured by enzyme-linked immunosorbent assay (ELISA) following the manufacturer’s instructions (BD Biosciences, USA). The effects on IL-8, IL-1β, CCL2 and TNF-α production by the neutrophils were calculated by comparing the percentages of the released agents to the stimulated control without the tested compound.

[4] = test system: IL-8 secretion by LPS-stimulated human neutrophils; test: IL-8 release, ELISA; type: cell-based; details: 0.5, 1.0 and 2.5 µM, 24 h after LPS stimulation
Experimental: as §1, §2

[5] = test system: TNF-α secretion by LPS-stimulated human neutrophils; test: TNF-α release, ELISA; type: cell-based
Experimental: as §1, §2

[6] = test system: CCL2 secretion by LPS-stimulated human neutrophils; test: CCL2 release, ELISA; type: cell-based; details: 0.5, 1.0 and 2.5 µM, 24 h after LPS stimulation
Experimental: as §1, §2

MCF-7 cell line = test system: MCF-7 cell line; set-up: method as in PMID 30127485; details: cited from earlier work
SAOS-2 = test: MTT viability test, osteosarcoma cells with p53 deletion; details: Homo sapiens
Experimental: (§6) Two osteosarcoma cell lines: U-2 OS (with wild-type p53 status) and SAOS-2 (p53 null cell line) were used to evaluate cytotoxic activity of 1 and 2. Doxorubicin was employed as a reference drug. Viability of the cells treated by 1 or 2 (concentration range 0.014–50.0 µM) for 24 and 48 h was assessed by thiazolyl blue tetrazolium bromide (MTT) test.
(§7) Human osteosarcoma cell lines U-2 OS (ATCC HTB-96; wild-type p53 status) and SAOS-2 (ATCC HTB-85; p53 deletion) were cultured in McCoy’s 5A medium containing L-glutamine and supplemented with 10% FBS at 37 °C and in a humidified atmosphere with 5% CO2. […] After that, working solutions were diluted with culture media to the final 1× concentrations (0.014–50 μM).
(§8) For the MTT assay, the osteosarcoma cells suspended in the nutrient medium were seeded into 96-well microtiter plates (density 1.0 × 10^4 per well) and preincubated for 24 h (37 °C, 5% CO2). Subsequently, the cells were treated with 1 or 2 at different concentrations (0.014–50 μM) and further cultivated for another 24 or 48 h. After that, MTT was added for 1 h at the final concentration of 500 ng/mL. The culture medium was removed and the formazan crystals were dissolved in isopropanol containing 40 mM HCl. Absorbance was measured using Tecan microplate reader at 570 nm with the reference wavelength of 650 nm. […] Data were analyzed using Origin software.

U-2 OS = test: MTT viability test, osteosarcoma cells with wild-type p53 status; details: Homo sapiens, U2OS
Experimental: as §6, §7, §8

PC3 = test: LDH cell viability assay, prostate cancer cells; type: cell-based; details: Homo sapiens, PC-3; PC3, 24 h, LDH assay; read-out: IC50
Experimental: (§3) Normal prostate epithelial cells (PNT2), two prostate cancer cell lines (Du145 and PC3), human keratinocytes (HaCaT), two melanoma cell lines (A375 and HTB140) and two colon cancer cell lines (HT29 and Caco-2) were treated with 3 at a concentration range 1.0–50.0 µg/mL. Viability of the cells was estimated using lactate dehydrogenase (LDH) assay.
(§4) Cytotoxic activity of 3 was tested on human cancer and normal cells, grouped in three panels: prostate, skin and gastrointestinal. The prostate panel comprised prostate cancer cell lines DU145 (ATCC HTB-81) and PC3 (ATCC CRL-1435) and prostate normal epithelial cells PNT2 (ECACC 95012613). Melanoma cell lines A375 (ATCC CRL-1619) and HTB140 (ATCC Hs 294T) together with human keratinocytes HaCaT (obtained as a kind gift of Prof. Marta Michalik, Department of Cell Biology, Jagiellonian University) were included in the skin panel. Two colon cancer cell lines, namely Caco-2 (ATCC HTB-37) and HT29 (ATCC HTB-38), constituted the gastrointestinal panel. Du145 cells were grown in a modified Eagle’s medium with low (1.0 g/L) glucose concentration; HT29, PC3 and PNT-2 cells were grown in Dulbecco’s modified Eagle’s medium (DMEM) and F12 HAM Nutrient Mixture; Caco-2 cells were grown in modified Eagle’s medium with nonessential amino acids (NEAA); and melanoma cells and keratinocytes were maintained in modified Eagle’s medium with high (4.5 g/L) glucose concentration. The culture media contained antibiotics and 10% fetal bovine serum (FBS). All cultures were maintained at 37 °C in a humidified, 5% CO2-containing atmosphere.
(§5) The examined compound (3) was diluted in the culture media from freshly made stock solution in MeOH (10 mg/mL) to the working concentrations (from 0 to 50 μg/mL). Cell viability was determined as described previously. […] Then, the culture medium was replaced with the medium containing different concentrations of the assessed compound (1–50 μg/mL). After 24 h of incubation, the viability of the cells was determined using colorimetric lactate dehydrogenase (LDH) assay in comparison to the controls to which corresponding aliquots of MeOH diluted with culture media were added. Cells grown in the medium without the tested compound were used as control I (negative), and the positive control (control II) was obtained by incubation of the cells in the medium containing 1% Triton X-100. LDH released from the damaged cells into the cell culture medium was quantified by measuring the absorbance at 490 nm using a Synergy II Biotek microplate reader. Cytotoxicities of the examined compounds were calculated as follows: ((absorbance of the tested sample−absorbance of control I)/(absorbance of control II−absorbance of control I)) × 100. Results were means of three independent measurements (± SD). Doxorubicin (Ebewe Pharma G.m.b.H., Unterach, Austria) was used as a reference cytostatic drug.

HaCaT = test: LDH cell viability assay, keratinocytes; type: cell-based, human; details: Homo sapiens, 24 h, LDH assay, read-out: IC50
Experimental: as §3, §4, §5

A375 = test: LDH cell viability assay, melanoma cells; type: cell-based; details: Homo sapiens, A-375; A375, 24 h, LDH assay; read-out: IC50
Experimental: as §3, §4, §5

HTB140 = test: LDH cell viability assay, melanoma cells; type: cell-based; details: Homo sapiens; HTB140, 24 h, LDH assay; read-out: IC50
Experimental: as §3, §4, §5

[7] = test system: normal and cancer cell lines (prostate, skin, gastrointestinal panels); test: LDH cytotoxicity, whole panel of normal and cancer cell lines; type: cell-based; details: Homo sapiens; 24 h treatment, cell density 1.5 × 10^4; doxorubicin: except PC3 cells; read-out: IC50 range over the cell lines
Experimental: Cytotoxic activity of 3 was tested on human cancer and normal cells, grouped in three panels: prostate, skin and gastrointestinal. The prostate panel comprised prostate cancer cell lines DU145 (ATCC HTB-81) and PC3 (ATCC CRL-1435) and prostate normal epithelial cells PNT2 (ECACC 95012613). Melanoma cell lines A375 (ATCC CRL-1619) and HTB140 (ATCC Hs 294T) together with human keratinocytes HaCaT (obtained as a kind gift of Prof. Marta Michalik, Department of Cell Biology, Jagiellonian University) were included in the skin panel. Two colon cancer cell lines, namely Caco-2 (ATCC HTB-37) and HT29 (ATCC HTB-38), constituted the gastrointestinal panel. […]
The examined compound (3) was diluted in the culture media from freshly made stock solution in MeOH (10 mg/mL) to the working concentrations (from 0 to 50 μg/mL). Cell viability was determined as described previously. […] Then, the culture medium was replaced with the medium containing different concentrations of the assessed compound (1–50 μg/mL). After 24 h of incubation, the viability of the cells was determined using colorimetric lactate dehydrogenase (LDH) assay in comparison to the controls to which corresponding aliquots of MeOH diluted with culture media were added. […] LDH released from the damaged cells into the cell culture medium was quantified by measuring the absorbance at 490 nm using a Synergy II Biotek microplate reader. […]

PC3 cells = test system: PC3 cells; set-up: method as in PMID 33968193; details: cited from earlier work
HepG2 cells = test system: HepG2 cells; set-up: method as in PMID 35520265; details: cited from earlier work

## 2α,5-epoxy-5,10-dihydroxy- 6α-angeloyloxy-9β-(3-methylbutyryloxy)-germacran-8α,12-olide
Cancer cells
  IC50: > 7.6 µM
NF-κB; concentration range 1–10 μM
  NF-κB inhibitory effect: NF-κB inhibitory effect was shown

## 2β,5-epoxy-5,10-dihydroxy-6α-angeloyloxy-9β-isobutyryloxy-germacran-8α,12-olide
Cancer cells
  IC50: > 7.9 µM
NF-κB; concentration of 10 μM
  NF-κB inhibitory effect: NF-κB inhibitory effect was shown

## C=C1C(=O)O[C@H]2[C@H]1[C@@H](O)[C@H](OC(=O)C(C)CC)[C@H](C)CCC(=O)[C@](C)(O)[C@@H]2OC(=O)/C(C)=C\C (stereo partly drawn) [Compound 1, 4β,8α-dihydroxy-5β-angeloyloxy-9β-(2-methylbutyryloxy)-3-oxo-germacran-6α,12-olide]
[1]
  Cytotoxicity to PMNs (propidium iodide staining): nontoxic
[2]
  ROS generation: significantly and dose-dependently reduced ROS generation
[3]
  IL-1β production upon LPS stimulation: significant and dose-dependent inhibition
[4]
  IL-8 production upon LPS stimulation: significant and dose-dependent inhibition
[5]; lowest concentration (0.5 μM)
  TNF-α secretion: could not be achieved
[5]; only in the two higher concentrations (1.0 and 2.5 μM), 24 h after LPS stimulation
  TNF-α release: statistically significant reduction
[6]
  CCL2 production upon LPS stimulation: significant and dose-dependent inhibition
MCF-7 cell line
  Cytotoxicity: resistant
SAOS-2; SAOS-2, 24 h
  IC50: 9.11 µM
SAOS-2; SAOS-2, 48 h
  IC50: 6.76 µM
U-2 OS; 24 h
  IC50: 7.77 µM
U-2 OS; 48 h
  IC50: 5.1 µM

## C=C1C(=O)O[C@H]2[C@H]1[C@@H](O)[C@H](OC(=O)CC(C)C)[C@H](C)CCC(=O)[C@](C)(O)[C@@H]2OC(=O)/C(C)=C\C [Compound 2, 4β,8α-dihydroxy-5β-angeloyloxy-9β-(3-methylbutyryloxy)-3-oxo-germacran-6α,12-olide]
[1]
  Cytotoxicity to PMNs (propidium iodide staining): nontoxic
[2]
  ROS generation: significantly and dose-dependently reduced ROS generation
[3]
  IL-1β production upon LPS stimulation: significant and dose-dependent inhibition
[4]
  IL-8 production upon LPS stimulation: significant and dose-dependent inhibition
[6]
  CCL2 production upon LPS stimulation: significant and dose-dependent inhibition
SAOS-2; SAOS-2, 24 h
  IC50: 5.21 µM
SAOS-2; SAOS-2, 48 h
  IC50: 3.57 µM
U-2 OS; 24 h
  IC50: 3.18 µM
U-2 OS; 48 h
  IC50: 2.52 µM

## COc1cccc2c1C(=O)c1c(O)c3c(c(O)c1C2=O)C[C@@](O)(C(=O)CO)C[C@@H]3O[C@H]1C[C@H](N)[C@H](O)[C@H](C)O1 [Doxorubicin, reference compound]
PC3
  IC50: > 50 µg/mL
HaCaT
  IC50: > 4.68 µg/mL
A375
  IC50: 0.59 ± 0.04 µg/mL
HTB140
  IC50: > 5.71 µg/mL
[7]
  IC50: 1.1 to 10.5 µM
SAOS-2; SAOS-2, 24 h
  IC50: 4.36 µM
SAOS-2; SAOS-2, 48 h
  IC50: 0.08 µM
U-2 OS; 24 h
  IC50: 1.87 µM
U-2 OS; 48 h
  IC50: 0.17 µM

## C=C1C(=O)O[C@H]2[C@H]1[C@@H](OC(=O)C(C)C)C(=O)[C@H](C)CCC[C@](C)(O)[C@@H]2OC(=O)C(C)C [incaspitolide A, Incaspitolide A]
PC3 cells
  Apoptosis induction: appeared to induce apoptosis

## Cardivarolide H
HepG2 cells
  Apoptosis induction: appeared to induce apoptosis
